System: Spontaneous Hypertensive rats (SHR)
Assay: Rat telemetry, blood pressure and heart rate
Type: in vivo
Conditions: 3 mg/kg enalapril alone, twice daily oral, SHR
Source text: Male Sprague Dawley (Taconic Biosciences) rats, Spontaneous Hypertensive rats (Charles River Laboratories, United States), and Dahl Salt Sensitive rats (Medical College of Wisconsin) were implanted with transmitters (HD S10; Data Science International) for collection of BP and heart rate (HR) data. The transmitters are capable of transmitting a BP signal via a pressure catheter inserted into the abdominal aorta. Initially, a baseline was established and recorded. Each rat was then removed from its recording cage and was dosed by p.o. gavage with vehicle or compound and the animals were then returned to the recording cage. Data sampling for BP and HR was carried out in intervals at selected time points for the duration of the experiment.
All data in this manuscript were presented as mean ± SEM with a significance level of p < 0.05, and n represents the number of individual animals. The significance of differences in concentration-response curves in the ear temperature and, myograft study were calculated using t-test, compare to the vehicle group. The EC50 was calculated using GraphPad Prism 8.3 using a 4-parameter logistic non-linear curve fit model. Single-dose rat telemetry data for normal and SHR rats and repeat-dose telemetry data in Dahls salt-sensitive rats were analyzed by two-way repeated measures ANOVA. Treatment group main effects were compared by Tukey’s HSD method. All telemetry data were analyzed with GraphPad Prism 8.3.

With `CCOC(=O)[C@H](CCc1ccccc1)N[C@@H](C)C(=O)N1CCC[C@H]1C(=O)O` [enalapril, reference compound] as the compound, how does the heart rate read?
Its heart rate is “without affecting the heart rate”.

And the “lowering of MAP” value?
Its value is 13%.

From article PMC7506137, “Selective Phosphodiesterase 1 Inhibitor BTTQ Reduces Blood Pressure in Spontaneously Hypertensive and Dahl Salt Sensitive Rats: Role of Peripheral Vasodilation” (Frontiers in Physiology, 2020)
